Read-outs that look alike come from different tables or passages of the source.
Tested on: LPS-induced IL-6 release level from THP-1 cells
Test: Test of IL-6 release from THP-1 cells (LPS-induced, IL-6 in supernatant detected by CBA)
Format: cell-based
Settings: Homo sapiens, read-out: Inhibition rate @ 10 uM
Summary of the method: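 THP-1 cells were treated with compound at final 30, 10, 3 and 1 uM, with dexamethasone 100 nM as reference, then stimulated with LPS. The LPS working solution was 800 ng/ml. After 24 h at 37 °C, IL-6 in the supernatant was measured by CBA.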

[1] = inflammatory factor IL-6 detected by CBA, compound 10 uM, LPS-stimulated THP-1 cells, supernatant after 24 hours

Structure (SMILES)	inhibition at 10 µM [1] [%]	inhibition at 10 µM (THP-1, 24 h) [%]
C=C1CCC2[C@]3(C)COC(C)(C)O[C@@H]3CC[C@@]2(C)[C@@H]1CCOc1ccncc1 (stereo partly drawn) [Compound 402, 4-(2-((4aR,6aS,7R,10bR)-3,3,6a, 10b-tetramethyl-8-dihydromethylenedecahydro-1H-naphtho[2,1-d][1,3]dioxin-7-yl)ethoxy)pyridine]	> 60	
C=C1CCC2[C@]3(C)CO[C@@H](CCC(=O)O)O[C@@H]3CC[C@@]2(C)[C@@H]1CCOc1ccncc1 (stereo partly shown) [Compound 408]	< 30	
C=C1CCC2[C@]3(C)CO[C@@H](C4CCCC4)O[C@@H]3CC[C@@]2(C)[C@@H]1CCN1CCOC[C@@H]1C(=O)O (stereo partly shown) [Compound 456]	> 60	
C=C1CCC2[C@]3(C)CO[C@@H](C4CCCC4)O[C@@H]3CC[C@@]2(C)[C@@H]1CCN1CCN(C)CC1 (stereo partly drawn) [Compound 433, 1-(2-((3R,4aR,6aS,7R,10bR)-3-cyclopentyl-6a,10b-dimethyl-8-methylene-decahydro-1H-naphtho[2,1-d][1,3]dioxin-7-yl)ethyl)-4-methylpiperazine]	> 60	
C=C1CCC2[C@]3(C)CO[C@@H](C4CCCC4)O[C@@H]3CC[C@@]2(C)[C@@H]1CCOc1ccc(F)cc1C(=O)O (stereo partly drawn) [Compound 409, 2-(2-((3R,4aR,6aS,7R,10bR)-3-cyclopentyl-6a,10b-dimethyl-8-dihydromethylenedecahydro-1H-naphtho[2,1-d][1,3]dioxin-7-yl)ethoxy)-5-fluorobenzoic acid]	< 30	
C=C1CCC2[C@]3(C)CO[C@@H](C4CCCC4)O[C@@H]3CC[C@@]2(C)[C@@H]1CCN1CCOC1=O (stereo partly drawn) [Compound 196, 3-(2-((3R,4aR,6aS,7R,10bR)-3-cyclopentyl-6a,10b-dimethyl-8-decahydromethylene-1H-naphtho[2,1-d][1,3]dioxin-7-yl)ethyl)oxazolidin-2-one]	30 to 60	
C=C1CCC2[C@]3(C)CO[C@@H](c4ccc(F)c(F)c4)O[C@@H]3CC[C@@]2(C)[C@@H]1CCN1C(=O)COC1=O (stereo partly drawn) [Compound 215, 3-(2-((3R,4aR,6aS,7R,10bR)-3-(3,4-difluorophenyl)-6a, 10b-dimethyl-8-methylenedecahydro-1H-naphtho[2,1-d][1,3]dioxin-7-yl)ethyl)oxazolidine-2,4-dione]	< 30	
C=C1CCC2[C@]3(C)CO[C@@H](C4CCCC4)O[C@@H]3CC[C@@]2(C)[C@@H]1CCNc1ccncc1F (stereo partly drawn) [Compound 345, N-(2-((3R,4aR,6aS,7R,10bR)-3-cyclopentyl-6a,10b-dimethyl-8-decahydromethylene-1H-naphtho[2,1-d][1,3]dioxin-7-yl)ethyl)-3-fluoropyridin-4-amine]		30 to 60
C=C1CCC2[C@]3(C)CO[C@@H](C4CCCC4)O[C@@H]3CC[C@@]2(C)[C@@H]1CCOc1ccn(C)c(=O)c1 (stereo partly drawn) [Compound 357, 4-(2-((3R,4aR,6aS,7R,10bR)-3-cyclopentyl-6a,10b-dimethyl-8-dihydromethylenedecahydro-1H-naphtho[2,1-d][1,3]dioxin-7-yl)ethoxy)-1-methylpyridin-2(1H)-one]	> 60	
C=C1CCC2[C@](C)(CO)[C@H](O)CC[C@@]2(C)[C@@H]1CCOC1CCN(C)CC1 (stereo partly drawn) [Compound 386, (1R,2R,4aS,5R)-1-(hydroxymethyl)-1,4a-dimethyl-6-dihydromethylene-5-(2-((1-methylpiperidine-4-yl)oxy)ethyl) decahydronaphthalene-2-ol]	< 30	
C=C1CCC2[C@]3(C)CO[C@@H](C4CCCC4)O[C@@H]3CC[C@@]2(C)[C@@H]1CCOC1CCN(C(C)(C)C(=O)O)CC1 (stereo partly shown) [Compound 463]	> 60	
C=C1CCC2[C@]3(C)CO[C@@H](C4CCCC4)O[C@@H]3CC[C@@]2(C)[C@@H]1CCn1cc(C(=O)O)ccc1=O (stereo partly drawn) [Compound 457, 1-(2-((3R,4aR,6aS,7R,10bR)-3-cyclopentyl-6a,10b-dimethyl-8-dihydromethylene-1H-naphtho[2,1-d][1,3]dioxin-7-yl)ethyl)-6-oxo-1,6-dihydropyridine-3-carboxylic acid]		> 60
C=C1CCC2[C@]3(C)CO[C@@H](C4CCCC4)O[C@@H]3CC[C@@]2(C)[C@@H]1CCOc1ccnc(C)c1 (stereo partly drawn) [Compound 319, 4-(2-((3R,4aR,6aS,7R,10bR)-3-cyclopentyl-6a,10b-dimethyl-8-dihydromethylenedecahydro-1H-naphtho[2,1-d][1,3]dioxin-7-yl)ethoxy)-2-methylpyridine]	30 to 60	
C=C1CCC2[C@]3(C)CO[C@@H](C4CCCC4)O[C@@H]3CC[C@@]2(C)[C@@H]1CCN1CCC(OC)C1 (stereo partly shown) [Compound 116]	30 to 60	
C=C1CCC2[C@]3(C)CO[C@@H](C4CCCC4)O[C@@H]3CC[C@@]2(C)[C@@H]1CCOc1ccncn1 (stereo partly drawn) [Compound 312, 4-(2-((3R,4aR,6aS,7R,10bR)-3-cyclopentyl-6a,10b-dimethyl-8-dihydromethylenedecahydro-1H-naphtho[2,1-d][1,3]dioxin-7-yl)ethoxy)pyrimidine]		< 30
C=C1CCC2[C@]3(C)CO[C@@H](C4CCCC4)O[C@@H]3CC[C@@]2(C)[C@@H]1CCOc1ccc(C(=O)O)nc1 (stereo partly drawn) [Compound 432, 5-(2-((3R,4aR,6aS,7R,10bR)-3-cyclopentyl-6a,10b-dimethyl-8-dihydromethylenedecahydro-1H-naphtho[2,1-d][1,3]dioxin-7-yl)ethoxy)-2-picolinic acid]	> 60	
C=C1CCC2[C@]3(C)CO[C@@H](C4CCCC4)O[C@@H]3CC[C@@]2(C)[C@@H]1CCOc1cncc(C(=O)O)c1 (stereo partly drawn) [Compound 406, 5-(2-((3R,4aR,6aS,7R,10bR)-3-cyclopentyl-6a,10b-dimethyl-8-dihydromethylenedecahydro-1H-naphtho[2,1-d][1,3]dioxin-7-yl)ethoxy)nicotinic acid]		< 30
C=C1CCC2[C@]3(C)CO[C@@H](C4CCCC4)O[C@@H]3CC[C@@]2(C)[C@@H]1CCN1CCC[C@H]1C(=O)O (stereo partly shown) [Compound 435]	< 30	
C=C1CCC2[C@]3(C)CO[C@@H](C4CCCC4)O[C@@H]3CC[C@@]2(C)[C@@H]1CCOc1ccncc1C(=O)O (stereo partly drawn) [Compound 397, 4-(2-((3R,4aR,6aS,7R,10bR)-3-cyclopentyl-6a,10b-dimethyl-8-dihydromethylenedecahydro-1H-naphtho[2,1-d][1,3]dioxin-7-yl)ethoxy)nicotinic acid]	> 60	
C=C1CCC2[C@]3(C)CO[C@@H](C4CCCC4)O[C@@H]3CC[C@@]2(C)[C@@H]1CCOc1cccnc1C(=O)O (stereo partly drawn) [Compound 431, 3-(2-((3R,4aR,6aS,7R,10bR)-3-cyclopentyl-6a,10b-dimethyl-8-dihydromethylenedecahydro-1H-naphtho[2,1-d][1,3]dioxin-7-yl)ethoxy)-2-picolinic acid]	> 60	
C=C1CCC2[C@]3(C)CO[C@@H](C4CCCC4)O[C@@H]3CC[C@@]2(C)[C@@H]1CCOc1c(C(=O)O)cncc1C(=O)O (stereo partly drawn) [Compound 417, 4-(2-((3R,4aR,6aS,7R,10bR)-3-cyclopentyl-6a,10b-dimethyl-8-dihydromethylenedecahydro-1H-naphtho[2,1-d][1,3]dioxin-7-yl)ethoxy)pyridine-3,5-dicarboxylic acid]	< 30	
C=C1CCC2[C@]3(C)CO[C@@H](C4CCCC4)O[C@@H]3CC[C@@]2(C)[C@@H]1CCOc1ccnc(C(=O)O)c1 (stereo partly drawn) [Compound 410, 4-(2-((3R,4aR,6aS,7R,10bR)-3-cyclopentyl-6a,10b-dimethyl-8-dihydromethylenedecahydro-1H-naphtho[2,1-d][1,3]dioxin-7-yl)ethoxy)picolinic acid]	30 to 60	

From patent publication US10717720B2, “Modified compound of andrographolide” (Heilongjiang Zhenbaodao Pharmaceutical Co., Ltd., priority 2015, dated 2020)
